Assay results as given in patent US9901592B2 (priority 2008, dated 2018).
Values after ≈ are worked out from the molar mass of the structure shown. Values joined by “and” are separate entries in the source; they are usually repeats but may differ in a detail not shown here. Equal values may be shown once. Read-outs that look alike come from different tables or passages of the source.

Key:
[1] = tested on: M. hominis; type: cell-based; conditions: M. hominis (13 isolates)
[2] = tested on: S. pyogenes; assay: microbe, parasite or virus in culture; type: cell-based; conditions: for MIC: Streptococcus pyogenes
[3] = tested on: S. pneumoniae; assay: microbe, parasite or virus in culture; type: cell-based; conditions: for MIC: Streptococcus pneumoniae
[4] = tested on: M. catarrhalis; assay: microbe, parasite or virus in culture; type: cell-based; conditions: Moraxella catarrhalis
[5] = tested on: pneumococci; assay: microbe, parasite or virus in culture; type: cell-based, S. pneumoniae; conditions: Streptococcus pneumoniae
[6] = tested on: streptococci; assay: organism not typed; type: cell-based

## CCC[C@@H]1C[C@@H](C(=O)N[C@@H]([C@H]2O[C@H](SC)[C@H](O)[C@@H](O)[C@H]2O)[C@H](C)Cl)N(C)C1 [CLN, clindamycin]
[1]
  MIC Range: ≦0.008-0.031 μg/mL
[1]; Metamycoplasma hominis, read-out: MIC50
  MIC50: ≤ 0.008 µg/mL
[1]; Metamycoplasma hominis, read-out: MIC90
  MIC90: 0.016 µg/mL (≈ 0.0376 µM)
[2]; S. pyogenes
  strains with resistant clones / strains tested: 2/3 and 2/4
[2]; read-out: Initial MIC, strain 237 Macrolide-R [LA mutation], parent
  MIC: 0.06 µg/mL (≈ 0.141 µM)
[2]; read-out: Initial MIC, strain 2011 Macrolide-R [mef(A)], parent
  MIC: 0.06 µg/mL (≈ 0.141 µM)
[2]; read-out: Initial MIC, strain 2094 Macrolide-R [erm(A)], parent
  MIC: 0.06 µg/mL (≈ 0.141 µM)
[2]; read-out: Initial MIC, strain 2132 Macrolide-S, parent
  MIC: 0.06 µg/mL (≈ 0.141 µM)
[2]; read-out: Initial MIC, strain 2368 Macrolide-R [erm(B)], parent
  MIC: > 64 µg/mL
[2]; read-out: MIC of parents of resistant clones, S. pyogenes
  MIC: 0.06 µg/mL
[2]; read-out: Parental MICs, S. pyogenes, 5 strains with varying resistotypes
  MIC: 0.06 µg/mL (≈ 0.141 µM)
[2]; read-out: Selected Resistance (MIC), strain 237 Macrolide-R [LA mutation], after serial passages in the drug
  MIC: 0.5 µg/mL (≈ 1.18 µM)
[2]; read-out: Selected Resistance (MIC), strain 2011 Macrolide-R [mef(A)], after serial passages in the drug
  MIC: 0.06 µg/mL (≈ 0.141 µM)
[2]; read-out: Selected Resistance (MIC), strain 2094 Macrolide-R [erm(A)], after serial passages in the drug
  MIC: > 64 µg/mL
[2]; read-out: Selected Resistance (MIC), strain 2132 Macrolide-S, after serial passages in the drug
  MIC: 0.06 µg/mL (≈ 0.141 µM)
[2]; daily passages, max. 50
  days until resistant clones (MIC increase): 34 to 43 days
[2]; strain 237 Macrolide-R [LA mutation], clone selected with CEM-101
  Retest MIC after 10 Antibioticfree Subcultures: 0.03 µg/mL
[2]; strain 237 Macrolide-R [LA mutation], clone selected with CLN
  Retest MIC after 10 Antibioticfree Subcultures: 1 µg/mL
[2]; strain 2011 Macrolide-R [mef(A)], clone selected with AZI
  Retest MIC after 10 Antibioticfree Subcultures: 0.06 µg/mL
[2]; strain 2094 Macrolide-R [erm(A)], clone selected with AZI
  Retest MIC after 10 Antibioticfree Subcultures: 0.06 µg/mL
[2]; strain 2094 Macrolide-R [erm(A)], clone selected with CEM-101
  Retest MIC after 10 Antibioticfree Subcultures: 0.06 µg/mL
[2]; strain 2094 Macrolide-R [erm(A)], clone selected with CLN
  Retest MIC after 10 Antibioticfree Subcultures: >64 µg/mL
[2]; strain 2094 Macrolide-R [erm(A)], clone selected with CLR
  Retest MIC after 10 Antibioticfree Subcultures: 0.06 µg/mL
[2]; strain 2094 Macrolide-R [erm(A)], clone selected with TEL
  Retest MIC after 10 Antibioticfree Subcultures: >64 µg/mL
[2]; strain 2132 Macrolide-S, clone selected with AZI
  Retest MIC after 10 Antibioticfree Subcultures: 0.03 µg/mL
[2]; strain 2368 Macrolide-R [erm(B)], clone selected with CEM-101
  Retest MIC after 10 Antibioticfree Subcultures: >64 µg/mL
[2]; strain 2368 Macrolide-R [erm(B)], clone selected with TEL
  Retest MIC after 10 Antibioticfree Subcultures: >64 µg/mL
[3]; S. pneumoniae
  strains with resistant clones / strains tested: 2/5
[3]; read-out: Initial MIC, strain 24 Macrolide-R [erm(B)], parent
  MIC: > 64 µg/mL
[3]; read-out: Initial MIC, strain 1076 Macrolide-R [erm(B)&mef(A)], parent
  MIC: 64 µg/mL (≈ 151 µM)
[3]; read-out: Initial MIC, strain 1077 Macrolide-S, parent
  MIC: 0.016 µg/mL (≈ 0.0376 µM)
[3]; read-out: Initial MIC, strain 1635 Macrolide-R [erm(A)], parent
  MIC: 0.06 µg/mL (≈ 0.141 µM)
[3]; read-out: Initial MIC, strain 2686 Macrolide-R [L4 mutation], parent
  MIC: 0.03 µg/mL (≈ 0.0706 µM)
[3]; read-out: Initial MIC, strain 3009 Macrolide-R [23SrRNA mutation], parent
  MIC: 1 µg/mL (≈ 2.35 µM)
[3]; read-out: Initial MIC, strain 3665 Macrolide-R [mef(A)], parent
  MIC: 0.016 µg/mL (≈ 0.0376 µM)
[3]; read-out: Initial MIC, strain 7127 Macrolide-S [S20N in L4, A105V in L22], parent
  MIC: 0.03 µg/mL (≈ 0.0706 µM)
[3]; read-out: MIC of parents of resistant clones, S. pneumoniae (CEM-101: 7 strains)
  MIC: 0.03 to 0.06 µg/mL
[3]; read-out: Parental MICs, S. pneumoniae, 8 strains with varying resistotypes
  MIC: 0.016 to 1 µg/mL (≈ 0.0376 to 2.35 µM)
[3]; read-out: Selected Resistance MIC, strain 1077 Macrolide-S, after serial passages in the drug
  MIC: 4 µg/mL (≈ 9.41 µM)
[3]; read-out: Selected Resistance MIC, strain 1635 Macrolide-R [erm(A)], after serial passages in the drug
  MIC: > 64 µg/mL
[3]; read-out: Selected Resistance MIC, strain 2686 Macrolide-R [L4 mutation], after serial passages in the drug
  MIC: 0.125 µg/mL (≈ 0.294 µM)
[3]; read-out: Selected Resistance MIC, strain 3009 Macrolide-R [23SrRNA mutation], after serial passages in the drug
  MIC: 2 µg/mL (≈ 4.71 µM)
[3]; read-out: Selected Resistance MIC, strain 3665 Macrolide-R [mef(A)], after serial passages in the drug
  MIC: 0.03 µg/mL (≈ 0.0706 µM)
[3]; strain 24 Macrolide-R [erm(B)], clone selected with CEM-101
  Retest MIC after 10 Antibiotic-free Subcultures: >64 µg/mL
[3]; strain 24 Macrolide-R [erm(B)], clone selected with TEL
  Retest MIC after 10 Antibiotic-free Subcultures: >64 µg/mL
[3]; strain 1076 Macrolide-R [erm(B)&mef(A)], clone selected with CEM-101
  Retest MIC after 10 Antibiotic-free Subcultures: >64 µg/mL
[3]; strain 1076 Macrolide-R [erm(B)&mef(A)], clone selected with TEL
  Retest MIC after 10 Antibiotic-free Subcultures: >64 µg/mL
[3]; strain 1077 Macrolide-S, clone selected with AZI
  Retest MIC after 10 Antibiotic-free Subcultures: 4 µg/mL
[3]; strain 1077 Macrolide-S, clone selected with CEM-101
  Retest MIC after 10 Antibiotic-free Subcultures: 0.03 µg/mL
[3]; strain 1077 Macrolide-S, clone selected with CLN
  Retest MIC after 10 Antibiotic-free Subcultures: 8 µg/mL
[3]; strain 1077 Macrolide-S, clone selected with TEL
  Retest MIC after 10 Antibiotic-free Subcultures: 8 µg/mL
[3]; strain 1635 Macrolide-R [erm(A)], clone selected with AZI
  Retest MIC after 10 Antibiotic-free Subcultures: 0.03 µg/mL
[3]; strain 1635 Macrolide-R [erm(A)], clone selected with CEM-101
  Retest MIC after 10 Antibiotic-free Subcultures: 0.03 µg/mL
[3]; strain 1635 Macrolide-R [erm(A)], clone selected with CLN
  Retest MIC after 10 Antibiotic-free Subcultures: >64 µg/mL
[3]; strain 1635 Macrolide-R [erm(A)], clone selected with CLR
  Retest MIC after 10 Antibiotic-free Subcultures: 0.25 µg/mL
[3]; strain 2686 Macrolide-R [L4 mutation], clone selected with CEM-101
  Retest MIC after 10 Antibiotic-free Subcultures: 0.03 µg/mL
[3]; strain 2686 Macrolide-R [L4 mutation], clone selected with CLR
  Retest MIC after 10 Antibiotic-free Subcultures: 0.03 µg/mL
[3]; strain 2686 Macrolide-R [L4 mutation], clone selected with TEL
  Retest MIC after 10 Antibiotic-free Subcultures: 0.03 µg/mL
[3]; strain 3009 Macrolide-R [23SrRNA mutation], clone selected with CEM-101
  Retest MIC after 10 Antibiotic-free Subcultures: 1 µg/mL
[3]; strain 3009 Macrolide-R [23SrRNA mutation], clone selected with CLR
  Retest MIC after 10 Antibiotic-free Subcultures: 1 µg/mL
[3]; strain 3665 Macrolide-R [mef(A)], clone selected with CEM-101
  Retest MIC after 10 Antibiotic-free Subcultures: 0.03 µg/mL
[3]; strain 3665 Macrolide-R [mef(A)], clone selected with CLR
  Retest MIC after 10 Antibiotic-free Subcultures: 0.03 µg/mL
[3]; strain 3665 Macrolide-R [mef(A)], clone selected with TEL
  Retest MIC after 10 Antibiotic-free Subcultures: 0.03 µg/mL
[3]; strain 7127 Macrolide-S [S20N in L4, A105V in L22], clone selected with AZI
  Retest MIC after 10 Antibiotic-free Subcultures: 0.06 µg/mL
[3]; strain 7127 Macrolide-S [S20N in L4, A105V in L22], clone selected with CEM-101
  Retest MIC after 10 Antibiotic-free Subcultures: 0.03 µg/mL
[3]; strain 7127 Macrolide-S [S20N in L4, A105V in L22], clone selected with CLN
  Retest MIC after 10 Antibiotic-free Subcultures: 0.25 µg/mL
[3]; strain 7127 Macrolide-S [S20N in L4, A105V in L22], clone selected with CLR
  Retest MIC after 10 Antibiotic-free Subcultures: 1 µg/mL
[3]; strain 7127 Macrolide-S [S20N in L4, A105V in L22], clone selected with TEL
  Retest MIC after 10 Antibiotic-free Subcultures: 0.03 µg/mL
[4]
  MIC90: 2 µg/mL (≈ 4.71 µM)
[5]; pneumococci, L4 mutations (27)
  MIC50: 0.06 µg/mL (≈ 0.141 µM)
  MIC90: 0.125 µg/mL (≈ 0.294 µM)
[5]; read-out: MIC range, pneumococci, L4 mutations (27)
  MIC: 0.03 to 0.125 µg/mL (≈ 0.0706 to 0.294 µM)
[6]
  MIC50: ≤ 0.12 µg/mL
